Experimental data from ChEMBL document CHEMBL4715932, “Positional Isomers of Biphenyl Antimicrobial Peptidomimetic Amphiphiles” (ACS Med Chem Lett, 2021).
Values after ≈ are worked out from the molar mass of the structure shown.

Legend:
Staphylococcus aureus [1] = assay: Antimicrobial activity against methicillin resistant Staphylococcus aureus ATCC 43300 assessed as growth inhibition incubated for 18 hrs; format: functional
Escherichia coli [2] = assay: Antimicrobial activity against Escherichia coli ATCC 25922 assessed as growth inhibition incubated for 18 hrs; format: functional
Clostridioides difficile [3] = assay: Antibacterial activity against Clostridioides difficile NSW 132 (RT027) assessed as inhibition of growth visually preincubated for 2 to 4 hrs measured after 48 hrs by CLSI method; format: functional; details: time hrs <=52
[4] = Cytotoxicity against human HEK-293 cells incubated for 23 hrs by CO-ADD method; format: cell-based, HEK293
Klebsiella pneumoniae = assay: Antimicrobial activity against multidrug-resistant Klebsiella pneumoniae ATCC 700603 assessed as growth inhibition incubated for 18 hrs; format: functional
Staphylococcus aureus [5] = assay: Antibacterial activity against methicillin-resistant Staphylococcus aureus NCTC 10442 assessed as inhibition of growth visually by CLSI method; format: functional
Staphylococcus aureus [6] = assay: Antibacterial activity against Staphylococcus aureus ATCC 29213 assessed as inhibition of growth visually by CLSI method; format: functional
Pseudomonas aeruginosa = assay: Antimicrobial activity against Pseudomonas aeruginosa ATCC 27853 assessed as growth inhibition incubated for 18 hrs; format: functional
Staphylococcus aureus [7] = assay: Antibacterial activity against vancomycin intermediate susceptibility Staphylococcus aureus Mu50 assessed as inhibition of growth visually by CLSI method; format: functional
[8] = Hemolytic activity in human RBC assessed as maximal hemolysis at <= 32 ug/ml incubated for 1 hr by CO-ADD method; format: cell-based, Erythrocyte; details: red blood cells (erythrocytes), dose <=32 µg/ml, read-out: Activity
[9] = Cytotoxicity against human HEK-293 cells assessed as maximal inhibition at <= 32 ug/ml incubated for 23 hrs by CO-ADD method; format: cell-based, HEK293; details: dose <=32 µg/ml, read-out: Imax
Cryptococcus neoformans = assay: Antifungal activity against Cryptococcus neoformans H99 ATCC 208821 assessed as growth inhibition incubated for 36 hrs; format: functional; details: var. grubii H99 ATCC 208821
Acinetobacter baumannii = assay: Antimicrobial activity against Acinetobacter baumannii ATCC 19606 assessed as growth inhibition incubated for 18 hrs; format: functional
Candida albicans = assay: Antifungal activity against Candida albicans ATCC 90028 assessed as growth inhibition incubated for 36 hrs; format: functional; details: 28A ATCC 90028
Enterococcus faecalis [10] = assay: Antibacterial activity against vancomycin-resistant Enterococcus faecalis ATCC 51299 assessed as inhibition of growth visually by CLSI method; format: functional
Clostridioides difficile [11] = assay: Antibacterial activity against Clostridioides difficile ATCC 700057 assessed as inhibition of growth visually preincubated for 2 to 4 hrs measured after 48 hrs by CLSI method; format: functional; details: time hrs <=52
[12] = Hemolytic activity in human RBC assessed as hemolysis incubated for 1 hr by CO-ADD method; format: ADME, cell-based, Erythrocyte; details: red blood cells (erythrocytes)
[13] = Hemolytic activity in sheep RBC assessed as hemolysis at 5 microg/ml incubated for 2 hrs by CO-ADD method; format: ADME, cell-based, Ovis aries, Erythrocyte; details: red blood cells (erythrocytes), at 5 µg/mL, read-out: Activity
Streptococcus pneumoniae = assay: Antibacterial activity against Streptococcus pneumoniae ATCC 49619 assessed as inhibition of growth visually by CLSI method; format: functional
[14] = Hemolytic activity in sheep RBC assessed as hemolysis at 50 microg/ml incubated for 2 hrs; format: ADME, cell-based, Ovis aries, Erythrocyte; details: red blood cells (erythrocytes), at 50 µg/mL, read-out: Activity
Escherichia coli [15] = assay: Antibacterial activity against Escherichia coli ATCC 10418 assessed as inhibition of growth visually by CLSI method; format: functional
Enterococcus faecalis [16] = assay: Antibacterial activity against Enterococcus faecalis ATCC 29212 assessed as inhibition of growth visually by CLSI method; format: functional

Compound	MIC80 (Staphylococcus aureus [1])	MIC80 (Escherichia coli [2])	MIC (Clostridioides difficile [3])	CC50 at 23 h [4]	MIC80 (Klebsiella pneumoniae)	MIC (Staphylococcus aureus [5])	MIC (Staphylococcus aureus [6])	MIC80 (Pseudomonas aeruginosa)	MIC (Staphylococcus aureus [7])	hemolysis at 1 h [8]	Emax at 23 h [9]	MIC80 (Cryptococcus neoformans)	MIC80 (Acinetobacter baumannii)	MIC80 (Candida albicans)	MIC (Enterococcus faecalis [10])	MIC (Clostridioides difficile [11])	HC50 at 1 h [12]	hemolysis at 2 h, 5 microg/ml [13]	MIC (Streptococcus pneumoniae)	MIC (Escherichia coli [15])	further results
CC(C)CCOc1ccccc1-c1ccccc1OCc1cn(C[C@@H](CCCCN)NC(=O)[C@@H](CCCNC(=N)N)n2cc(CC3CCCCC3)nn2)nn1.Cl.Cl	≤ 0.25 µg/mL	8 µg/mL	8 µg/mL	> 32 µg/mL	32 µg/mL	2 µg/mL	2 µg/mL	16 µg/mL	4 µg/mL	56%	14%	> 32 µg/mL	16 µg/mL	32 µg/mL	8 µg/mL	16 µg/mL	> 32 µg/mL	2.1%	1 µg/mL	4 µg/mL	hemolysis at 2 h, 50 microg/ml [14]: 66.6%; MIC (Enterococcus faecalis [16]): 4 µg/mL
CC(C)CCOc1ccccc1-c1cccc(OCc2cn(C[C@@H](CCCCN)NC(=O)[C@@H](CCCNC(=N)N)n3cc(CC4CCCCC4)nn3)nn2)c1.Cl.Cl	≤ 0.25 µg/mL	2 µg/mL	8 µg/mL	> 32 µg/mL	> 32 µg/mL	4 µg/mL	4 µg/mL	2 µg/mL	2 µg/mL	81%	36%	> 32 µg/mL	16 µg/mL	16 µg/mL	8 µg/mL	16 µg/mL	> 32 µg/mL	1.4%	2 µg/mL	4 µg/mL	hemolysis at 2 h, 50 microg/ml [14]: 38.2%; MIC (Enterococcus faecalis [16]): 4 µg/mL
CC(C)(C)c1ccc(CC(N)C(=O)NC(CCCNC(=N)N)C(=O)Nc2cc(NC(=O)C(CCCNC(=N)N)NC(=O)C(N)Cc3ccc(C(C)(C)C)cc3)cc(C(N)=O)c2)cc1 (stereo not drawn)	–	–	–	–	–	–	3.9 µg/mL (≈ 4.48 µM)	–	–	–	–	–	–	–	–	–	> 100 µg/mL	–	–	–	–
CC/C(=C(\c1ccccc1)c1ccc(OCCN(C)C)cc1)c1ccccc1 [TAMOXIFEN]	–	–	–	9 µg/mL (≈ 24.2 µM)	–	–	–	–	–	–	–	–	–	–	–	–	–	–	–	–	–
CC(C)CCOc1ccc(-c2cccc(OCc3cn(C[C@@H](CCCCN)NC(=O)[C@@H](CCCNC(=N)N)n4cc(CC5CCCCC5)nn4)nn3)c2)cc1.Cl.Cl	≤ 0.25 µg/mL	8 µg/mL	16 µg/mL	> 32 µg/mL	32 µg/mL	8 µg/mL	4 µg/mL	16 µg/mL	2 µg/mL	102%	18%	> 32 µg/mL	32 µg/mL	8 µg/mL	8 µg/mL	16 µg/mL	> 32 µg/mL	2.3%	2 µg/mL	32 µg/mL	hemolysis at 2 h, 50 microg/ml [14]: 66.5%; MIC (Enterococcus faecalis [16]): 4 µg/mL
CCCCCCCCCCCCCCCC1OC2C3CC(C2O1)C(C(=O)NCCNC(=N)N)C3C(=O)NCCNC(=N)N.Cl.Cl (stereo not drawn)	–	–	–	> 50 µg/mL	–	–	–	–	–	–	–	–	–	–	–	–	–	–	–	–	MIC (Staphylococcus aureus [1]): 1 µg/mL
COLISTIN	–	–	–	–	–	–	–	–	–	–	–	–	–	–	–	–	–	–	–	1 µg/mL	MIC=>80 (Escherichia coli [2]): 0.125 µg/mL; MIC=>80 (Klebsiella pneumoniae): 0.25 µg/mL; MIC=>80 (Pseudomonas aeruginosa): 0.25 µg/mL; MIC=>80 (Acinetobacter baumannii): 0.25 µg/mL
C[C@@H]1[C@H](O)[C@@H](C)/C=C/C=C/C=C/C=C/C=C/C=C/C=C/[C@H](O[C@@H]2O[C@H](C)[C@@H](O)[C@H](N)[C@@H]2O)C[C@@H]2O[C@](O)(C[C@@H](O)C[C@@H](O)[C@H](O)CC[C@@H](O)C[C@@H](O)CC(=O)O[C@H]1C)C[C@H](O)[C@H]2C(=O)O [AMPHOTERICIN B]	–	–	–	–	–	–	–	–	–	–	–	1.56 µg/mL (≈ 1.69 µM)	–	1.56 µg/mL (≈ 1.69 µM)	–	–	–	–	–	–	–
